Reference: publication PMC6967409 (Frontiers in Chemistry, 2020)
Several values for one entry are separate records, joined by “and”; a condition that tells them apart may be missing. Identical values can stand only once. Like-named read-outs stand apart in the source and are kept apart here.

Legend:
[1] = system: P. falciparum W2; assay: T0 [3H]-hypoxanthine drug susceptibility assay; type: cell-based; conditions: Plasmodium falciparum; for IC50: W2, read-out: W2 IC50; for IC90: W2, read-out: W2 IC90
[2] = system: P. falciparum NF54; design: method as in Coertzen et al. (2018); conditions: pLDH, 48 h; ref Coertzen et al. (2018); read-out: Metabolic IC50 NF54; cited from earlier work
[3] = system: P. falciparum Dd2; design: method as in Coertzen et al. (2018); conditions: pLDH, 48 h; ref Coertzen et al. (2018); read-out: Metabolic IC50 Dd2; cited from earlier work
[4] = system: P. falciparum NF54; design: method as in Coertzen et al. (2018); conditions: SYBR Green I; ref Coertzen et al. (2018); read-out: Proliferative IC50 NF54; cited from earlier work
[5] = system: P. falciparum K1; design: method as in Coertzen et al. (2018); conditions: SYBR Green I; ref Coertzen et al. (2018); read-out: Proliferative IC50 K1; cited from earlier work
[6] = system: P. falciparum W2; design: method as in Coertzen et al. (2018); conditions: SYBR Green I; ref Coertzen et al. (2018); read-out: Proliferative IC50 W2; cited from earlier work
[7] = system: P. falciparum NF54 early stage gametocytes (>90% stage I–III); design: method as in Coertzen et al. (2018); conditions: read-out: Early Stage (EG, Luc 48 h) IC50; >90% stage I–III gametocytes; ref Coertzen et al. (2018); cited from earlier work
[8] = system: P. falciparum NF54 late stage gametocytes (>90% stage IV and V); design: method as in Coertzen et al. (2018); conditions: read-out: Late Stage (LG, Luc 72 h) IC50; >90% stage IV and V gametocytes; ref Coertzen et al. (2018); cited from earlier work
[9] = system: Pf CamWT, Cam3.II, CamWTC580Y, Cam3.IIC580Y, Cam3.IIRev; design: method as in Lanteri et al., 2014; conditions: ref Lanteri et al., 2014; read-out: mean IC50 across CamWT, Cam3.II and K13 transfected strains; cited from earlier work
[10] = system: P. falciparum W2; design: method as in Lanteri et al., 2014; conditions: ref Lanteri et al., 2014; read-out: mean IC50 against W2; cited from earlier work
[11] = system: Chinese hamster ovarian (CHO) cells; conditions: read-out: Cytotoxicity EC50 CHO; MTT assay; ref Coertzen et al. (2018); cited from earlier work
[12] = system: P. berghei ANKA GFP-Luc-SMcon sporozoites; assay: P. berghei-luciferase liver stage bioluminescence assay (causal prophylactic mode) in HepG2-CD81 cells; type: cell-based, Plasmodium berghei
Method: (§1) Briefly, HepG2-CD81 cells were seeded into 1,536 well plates containing 50 nL of test and control compounds diluted into DMSO. […] Next, 2 μL of luciferin reagent (Promega BrightGlo) was added to each well and luciferase activity was detected using a Perkin Elmer Envision plate reader. […] In parallel, plates were processed without sporozoites for HepG2 toxicity measurements.
(§2) In continuation of the transmission blocking theme, it is important to establish activities against liver stage parasites. […] This assay uses ultra-high-throughput screening methods optimized for a 1536-well format and a HepG2 human hepatoma cell line. […] To establish selectivity of the compounds for the parasite in the liver stage of infection, cytotoxicity was determined by measuring bioluminescence from the reaction between free ATP of compound-treated, uninfected hepatocytes and a luciferase reporter system.

[13] = HepG2 cytotoxicity bioluminescence assay (CellTiterGlo, ATP); type: cell-based, human; conditions: human, uninfected HepG2-CD81 cells
Method: as §1, §2

[14] = system: HepG2 cells; assay: as above; type: cell-based, human
Method: as §1, §2

[15] = system: P. falciparum ARC08-22 (4G); assay: T0 [3H]-hypoxanthine drug susceptibility assay, artemisinin-resistant clone (C580Y); type: cell-based, Plasmodium falciparum; conditions: preliminary, W2 as comparative sensitive strain
[16] = system: P. falciparum PL08-009 (5C); assay: as above; type: cell-based, Plasmodium falciparum; conditions: preliminary, W2 as comparative sensitive strain
[17] = two biological replicates listed in one cell

C[C@H]1[C@@H](O)O[C@@H]2O[C@@]3(C)CC[C@H]4[C@H](C)CC[C@@H]1[C@@]24OO3 [DHA 2, dihydroartemisinin]
IC50 [1]: 4.58 ± 2.54 nM | IC90 [1]: 10.3 ± 5.76 nM | IC50 [2]: 0.8 ± 0.1 nM | IC50 [3]: 5.7 ± 2 nM | IC50 [4]: 2.51 ± 0.19 nM | IC50 [5]: 1.51 ± 0.33 nM | IC50 [6]: 1.74 ± 0.22 nM | IC50 [7]: 43 ± 3.9 nM | IC50 [8]: 33.7 ± 1.98 nM | IC50 [9]: 11.2 nM | IC50 [10]: 5.2 nM | EC50 [11]: 25200 nM

C[C@H]1[C@H](N2CCS(=O)(=O)CC2)O[C@@H]2O[C@@]3(C)CC[C@H]4[C@H](C)CC[C@@H]1[C@@]24OO3 [Artemisone 8, artemisone]
Emax ([12]; Plasmodium berghei, 48 h, two biological replicates listed in one cell, read-out: P.berghei-Luciferase Liver Stage Bioluminescence Assay: Maximum measured (%)): 92.1% | IC50 ([12]; Plasmodium berghei, HepG2, 48 h, liver stage, HepG2 host cells, luciferase after 48 h, ±SD, read-out: P. berghei sporozoites IC50): 28 nM | inhibition at 10 µM ([12]; Plasmodium berghei, read-out: P. berghei sporozoites Maximum inhibition %): 93.3 ± 1.76% | IC50 ([12]; Plasmodium berghei, two biological replicates listed in one cell, read-out: P.berghei-Luciferase Liver Stage Bioluminescence Assay: IC50): 27.4 nM | inhibition of liver stage parasites ([12]; maintained down to 3 μM, 12-point titrations starting from 10 μM and […]): > 75% | IC50 ([12]; read-out: P. berghei sporozoites IC50, liver stage, HepG2 host cells, luciferase after 48 h, ±SD): 28.3 ± 1.27 nM | IC50 ([12]; two biological replicates listed in one cell, listed as 8 Artemisone (GC003), read-out: P.berghei-Luciferase Liver Stage Bioluminescence Assay: IC50): 29.2 nM | IC50 at 72 h [13, 17]: > 50000 nM | EC50 at 72 h ([13]; uninfected HepG2, ATP bioluminescence): > 50000 nM | HepG2 cytotoxicity IC50 (in words) ([14]; at 25 μM (artemiside 7) and 50 μM (artemisone 8)): no measurable IC50 values | IC50 [14, 17]: > 50000 nM | HepG2 Cytotoxicity Bioluminescence Assay: Maximum measured (%) ([14]; two biological replicates listed in one cell, listed as 8 Artemisone (GC003)): 11.8% and 16.0% | IC50 [1]: 1.69 ± 0.36 nM | IC90 [1]: 3.42 ± 0.45 nM | susceptibility of ARC08-22 (4G) clone (in words) [15]: no indication of reduced susceptibility | susceptibility of PL08-009 (5C) clone (in words) [16]: no indication of reduced susceptibility | IC50 [2]: 3 ± 0.8 nM | IC50 [3]: 2.7 ± 0.3 nM | IC50 [4]: 1.2 ± 0.4 nM | IC50 [5]: 1.01 ± 0.19 nM | IC50 [6]: 1.6 ± 0.4 nM | IC50 [7]: 1.94 ± 0.11 nM | IC50 [8]: 42.4 ± 3.3 nM | IC50 [9]: 2.4 nM | IC50 [10]: 1.9 nM | EC50 [11]: > 249000 nM
